{"source": "patent US20250019520A1", "about": "“RELIEF PRECURSORS WITH ENHANCED STABILITY” (XSYS Germany GmbH, priority 2023, published 2025)", "data": [{"experiment": "Thermal melt stability: onset time of crosslinking by oscillatory rheology at 160° C., SBS-rubber based trial formulation", "assay_type": "physicochemical", "conditions": "SBS-rubber based plate formulation with 1 wt % carbamate derivative, crude reaction mixture added without purification", "procedure": "In the given examples, the amount of stabilizer was varied in the range of 0 to 6.5 parts by weight and the excess was counterbalanced by the amount of binder, respectively. The components were dissolved in a solvent, being toluene (also called methylbenzene) and heated under reflux to obtain a homogeneous solution (concentration in toluene: 45 wt. %).\nThe solution was then cast on a carrier sheet. The plate thickness was adjusted using a doctor blade with a gap of 3 mm distance to the carrier sheet (PET film with 175 μm thickness).\nThe solvent was allowed to evaporate at room temperature for 16 hours followed by heating at 65° C. for 4 hours. To allow digital imaging, a mask layer (ML) coated on a cover sheet (CL) was laminated on top of the relief precursor using an Excelam-Q laminator (GMP Deutschland GmbH, Germany). Lamination was carried out at a temperature of the heated roll of 110° C., a velocity of 8.8 mm/s, and at a gap of 1.5 mm. To finish the lamination, the cast plate was sandwiched between two aluminum plates and was kept at 65° C. for 3 h.\nThe thermal melt stability was assessed by recording the melt viscosity during heating. Crosslinking of the sample was recorded as an increase in viscosity. Oscillatory rheological measurements were carried out using a Kinexus lab+rheometer (Malvern Instruments Ltd., UK) under isothermal (T=160° C.) conditions. Data was recorded using the corresponding software rSPACE version 1.76 (Malvern Instruments Ltd., UK). […] Prior to measurement, any foils (e.g. the cover sheet) and mask layers were removed from the relief precursor. Measurements were carried out in oscillation single frequency mode. The frequency was set to 1 Hz. The gap between the parallel plates was set constant to the respective sample thickness. Data points were recorded every 15 s. The complex shear viscosity η* was monitored over time t. The “onset time of crosslinking” was identified as “the time when the difference quotient Δη*/Δt is ≥1 Pa, with Δt=15 s”. A higher onset time indicates a higher thermal stability and stability towards mechanical stress.\nReaction mixtures were used completely without purification and were simply added to the plate formulation during homogenization in toluene solution. The stoichiometric amount of the reactants was calculated in a way to obtain a concentration of 1 wt % carbamate derivative in the plate formulation, assuming full conversion of the reactants. […] The reaction was quenched with an excess ethanol (same volume as the reaction mixture) and added to the plate formulation in toluene solution. The procedure for production of the plate precursor was followed as mentioned above. The solution was cast on a carrier sheet and traces of THF/ethanol were evaporated together with toluene during the drying step of the plate precursor.", "units": {"Onset time t (Δη*/Δt ≥ 1 Pa)/min (OT)": "min"}, "values": [{"smiles": "O=C(Nc1ccccc1)OCC(OC(=O)Nc1ccccc1)C1OC(=O)C(O)=C1O", "note": "(stereo not drawn) [Entry 3, 1-(3,4-dihydroxy-5-oxo-2,5-dihydrofuran-2-yl) ethane-1,2-diyl bis(phenylcarbamate)]", "Onset time t (Δη*/Δt ≥ 1 Pa)/min (OT)": 51}, {"smiles": "C[Si](C)(C)NC(=O)OCC(OC(=O)N[Si](C)(C)C)C1OC(=O)C(O)=C1O", "note": "(stereo not drawn) [Entry 9, 1-(3,4-dihydroxy-5-oxo-2,5-dihydrofuran-2-yl) ethane-1,2-diyl bis((trimethylsilyl) carbamate)]", "Onset time t (Δη*/Δt ≥ 1 Pa)/min (OT)": 5}, {"smiles": "O=C(NCCc1ccccc1)OCC(OC(=O)NCCc1ccccc1)C1OC(=O)C(O)=C1O", "note": "(stereo not drawn) [Entry 13, 1-(3,4-dihydroxy-5-oxo-2,5-dihydrofuran-2-yl) ethane-1,2-diyl bis(phenethylcarbamate)]", "Onset time t (Δη*/Δt ≥ 1 Pa)/min (OT)": 6}, {"smiles": "Cc1cccc(NC(=O)OCC(OC(=O)Nc2cccc(C)c2)C2OC(=O)C(O)=C2O)c1", "note": "(stereo not drawn) [Entry 12, 1-(3,4-dihydroxy-5-oxo-2,5-dihydrofuran-2-yl) ethane-1,2-diyl bis(m-tolylcarbamate)]", "Onset time t (Δη*/Δt ≥ 1 Pa)/min (OT)": 33}, {"smiles": "C=CCCCCCCCCCCNC(=O)OCC(OC(=O)NCCCCCCCCCCC=C)C1OC(=O)C(O)=C1O", "note": "(stereo not drawn) [Entry 14, 1-(3,4-dihydroxy-5-oxo-2,5-dihydrofuran-2-yl) ethane-1,2-diyl bis(dodec-11-en-1-ylcarbamate)]", "Onset time t (Δη*/Δt ≥ 1 Pa)/min (OT)": 44}, {"smiles": "Cc1ccc(S(=O)(=O)NC(=O)OCC(OC(=O)NS(=O)(=O)c2ccc(C)cc2)C2OC(=O)C(O)=C2O)cc1", "note": "(stereo not drawn) [Entry 2, 1-(3,4-dihydroxy-5-oxo-2,5-dihydrofuran-2-yl) ethane-1,2-diyl bis(tosylcarbamate)]", "Onset time t (Δη*/Δt ≥ 1 Pa)/min (OT)": 5}, {"smiles": "CCCCCCCCCCCCCCCCCCNC(=O)OCC(OC(=O)NCCCCCCCCCCCCCCCCCC)C1OC(=O)C(O)=C1O", "note": "(stereo not drawn) [Entry 10, 1-(3,4-dihydroxy-5-oxo-2,5-dihydrofuran-2-yl) ethane-1,2-diyl bis(octadecylcarbamate)]", "Onset time t (Δη*/Δt ≥ 1 Pa)/min (OT)": 6}, {"smiles": "CCCCNC(=O)OCC(OC(=O)NCCCC)C1OC(=O)C(O)=C1O", "note": "(stereo not drawn) [Entry 1, 1-(3,4-dihydroxy-5-oxo-2,5-dihydrofuran-2-yl) ethane-1,2-diyl bis(butylcarbamate)]", "Onset time t (Δη*/Δt ≥ 1 Pa)/min (OT)": 74}, {"smiles": "CCO[Si](CCCNC(=O)OCC(OC(=O)NCCC[Si](OCC)(OCC)OCC)C1OC(=O)C(O)=C1O)(OCC)OCC", "note": "(stereo not drawn) [Entry 4, 1-(3,4-dihydroxy-5-oxo-2,5-dihydrofuran-2-yl) ethane-1,2-diyl bis((3-(triethoxysilyl)propyl) carbamate)]", "Onset time t (Δη*/Δt ≥ 1 Pa)/min (OT)": 20}, {"smiles": "C=CC(=O)OCC(C)(COC(=O)C=C)NC(=O)OCC(OC(=O)NC(C)(COC(=O)C=C)COC(=O)C=C)C1OC(=O)C(O)=C1O", "note": "(stereo not drawn) [Entry 17, 2-((8-((acryloyloxy)methyl)-3-(3,4-dihydroxy-5-oxo-2,5-dihydrofuran-2-yl)-8-methyl-6,11-dioxo-2,5,10-trioxa-7-azatridec-12-en-1-oyl)amino)-2-methylpropane-1,3-diyl diacrylate]", "Onset time t (Δη*/Δt ≥ 1 Pa)/min (OT)": 6}, {"smiles": "CC(C)(C)NC(=O)OCC(OC(=O)NC(C)(C)C)C1OC(=O)C(O)=C1O", "note": "(stereo not drawn) [Entry 5, 1-(3,4-dihydroxy-5-oxo-2,5-dihydrofuran-2-yl) ethane-1,2-diyl bis(tert-butylcarbamate)]", "Onset time t (Δη*/Δt ≥ 1 Pa)/min (OT)": 34}, {"smiles": "C=C(C)C(=O)OCCNC(=O)OCC(OC(=O)NCCOC(=O)C(=C)C)C1OC(=O)C(O)=C1O", "note": "(stereo not drawn) [Entry 6, 6-(3,4-dihydroxy-5-oxo-2,5-dihydrofuran-2-yl)-4,9-dioxo-5,8-dioxa-3,10-diazadodecane-1,12-diyl bis(2-methylacrylate)]", "Onset time t (Δη*/Δt ≥ 1 Pa)/min (OT)": 33}, {"smiles": "O=C(Nc1cccc2ccccc12)OCC(OC(=O)Nc1cccc2ccccc12)C1OC(=O)C(O)=C1O", "note": "(stereo not drawn) [Entry 15, 1-(3,4-dihydroxy-5-oxo-2,5-dihydrofuran-2-yl) ethane-1,2-diyl bis(naphthalen-1-ylcarbamate)]", "Onset time t (Δη*/Δt ≥ 1 Pa)/min (OT)": 4}, {"smiles": "CC(C)c1ccc(NC(=O)OCC(OC(=O)Nc2ccc(C(C)C)cc2)C2OC(=O)C(O)=C2O)cc1", "note": "(stereo not drawn) [Entry 11, 1-(3,4-dihydroxy-5-oxo-2,5-dihydrofuran-2-yl) ethane-1,2-diyl bis((4-isopropylphenyl) carbamate)]", "Onset time t (Δη*/Δt ≥ 1 Pa)/min (OT)": 55}, {"smiles": "C=Cc1ccc(C(C)(C)NC(=O)OCC(OC(=O)NC(C)(C)c2ccc(C=C)cc2)C2OC(=O)C(O)=C2O)cc1", "note": "(stereo not drawn) [Entry 7, 1-(3,4-dihydroxy-5-oxo-2,5-dihydrofuran-2-yl) ethane-1,2-diyl bis((2-(4-vinylphenyl)propan-2-yl) carbamate)]", "Onset time t (Δη*/Δt ≥ 1 Pa)/min (OT)": 24}, {"smiles": "O=C(NC1CCCCC1)OCC(OC(=O)NC1CCCCC1)C1OC(=O)C(O)=C1O", "note": "(stereo not drawn) [Entry 8, 1-(3,4-dihydroxy-5-oxo-2,5-dihydrofuran-2-yl) ethane-1,2-diyl bis(cyclohexylcarbamate)]", "Onset time t (Δη*/Δt ≥ 1 Pa)/min (OT)": 52}]}, {"experiment": "Thermal melt stability: onset time of crosslinking, SIS-rubber based formulation", "assay_type": "physicochemical", "conditions": "160° C.", "procedure": "The thermal melt stability was assessed by recording the melt viscosity during heating. Crosslinking of the sample was recorded as an increase in viscosity. Oscillatory rheological measurements were carried out using a Kinexus lab+rheometer (Malvern Instruments Ltd., UK) under isothermal (T=160° C.) conditions. Data was recorded using the corresponding software rSPACE version 1.76 (Malvern Instruments Ltd., UK). As measurement geometry, parallel plates with a diameter of 2.5 cm of the upper plate were chosen. As sample, a disc of a relief precursor with a diameter of 2.5 cm was used. Prior to measurement, any foils (e.g. the cover sheet) and mask layers were removed from the relief precursor. Measurements were carried out in oscillation single frequency mode. The frequency was set to 1 Hz. The gap between the parallel plates was set constant to the respective sample thickness. Data points were recorded every 15 s. The complex shear viscosity η* was monitored over time t. The “onset time of crosslinking” was identified as “the time when the difference quotient Δη*/Δt is ≥1 Pa, with Δt=15 s”. A higher onset time indicates a higher thermal stability and stability towards mechanical stress.\nIn this example, another trial formulation based on a SIS tri-block copolymer was used. […]", "units": {"Onset time t (Δη*/Δt ≥ 1 Pa)/min": "min"}, "values": [{"smiles": "Cc1cc(C(C)(C)C)c(O)c(C(C)(C)C)c1", "note": "[BHT, 2,6-di-tert-butyl-4-methylphenol, reference compound]", "Onset time t (Δη*/Δt ≥ 1 Pa)/min": 16}]}, {"experiment": "Kneading trials at 180° C., onset of crosslinking seen as increase in torque", "assay_type": "physicochemical", "conditions": "kneading at 180° C. for 60 min, SBS binder plus stabilizer", "procedure": "Kneading trials were carried out using a ThermoFisher Scientifc Haake kneading device equipped with a Haake PolyLab OS RheoDrive 7 control unit, a Haake Rheomix 600 OS heating and kneading chamber with Roller Rotors R600. The torque and the sample temperature were recorded using the software PolySoft, version 2.1.0.1. For the measurement, a temperature of 180° C. was applied. The measurement was carried out for 60 min, respectively. The components were added to the kneading device as solids and were allowed to be mixed in the kneading device.\nIn the given sample, the amount of stabilizer was varied in the range of 0 to 1.0 parts by weight and the excess was counterbalanced by the amount of binder, respectively.\nAn increase in torque indicated the onset of crosslinking of the SBS-rubber due to insufficient stabilization. Without additional stabilizer, an increase in torque was observed within the first 10 min of measurement time. With BHT as stabilizer, an increase in torque was detected after 28 min of heating at 180° C. With ascorbyl palmitate, the best result was achieved, where crosslinking was observed after 50 min.", "units": {"Onset time t/min": "min"}, "values": [{"smiles": "Cc1cc(C(C)(C)C)c(O)c(C(C)(C)C)c1", "note": "[BHT, 2,6-di-tert-butyl-4-methylphenol, reference compound]", "Onset time t/min": 28}]}]}
